From ChEMBL document CHEMBL3272024, “(Acylaryloxy)acetic acid diuretics. 1. (2-Alkyl- and 2,2-dialkyl-1-oxo-5-indanyloxy)acetic acids” (J Med Chem, 1977)

Experiments:
[1] = test system: Pan troglodytes; experiment: Natriuretic activity in chimpanzee assessed as change sodium level in urine measured per min at 5 mg/kg, po; format: functional
[2] = test system: Pan troglodytes; experiment: Ratio of change in urate excretion to change in inulin excretion in chimpanzee in urine at 5 mg/kg, po; format: functional
[3] = Acute toxicity in iv dosed mouse; format: organism-based; conditions: in vivo
[4] = test system: Rattus norvegicus; experiment: Natriuretic activity in po dosed Charles River rat assessed as sodium level in urine per cage collected 0.5 hrs interval relative to 2-(3,6,7-trimethyl-1-oxo-2,3-dihydro-1H-inden-5-yloxy)acetic acid; format: functional
[5] = test system: Canis familiaris; experiment: Diuretic activity in dog assessed as potassium level in urine collected for 2 hrs at 5 mg/kg, iv over a period of 5 mins (reference value: 5 to 30 microEq); format: functional, Canis lupus familiaris
[6] = test system: Canis familiaris; experiment: Diuretic activity in dog assessed as chloride level in urine collected for 2 hrs at 5 mg/kg, iv over a period of 5 mins (reference value: 1 to 10 microEq); format: functional, Canis lupus familiaris
[7] = test system: Canis familiaris; experiment: Diuretic activity in dog assessed as urine volume collected for 2 hrs at 5 mg/kg, iv over a period of 5 mins (reference value: 1 to 2 mL); format: functional, Canis lupus familiaris
[8] = test system: Canis familiaris; experiment: Diuretic activity in dog assessed as sodium level in urine collected for 2 hrs at 5 mg/kg, iv over a period of 5 mins (reference value: 5 to 30 microEq); format: functional, Canis lupus familiaris
[9] = test system: Canis familiaris; experiment: Diuretic activity in dog assessed as urine volume collected for 2 hrs at 1.5 mg/kg, iv over a period of 5 mins (reference value: 1 mL); format: functional, Canis lupus familiaris
[10] = test system: Canis familiaris; experiment: Diuretic activity in dog assessed as potassium level in urine collected for 2 hrs at 1.5 mg/kg, iv over a period of 5 mins (reference value: 18 microEq); format: functional, Canis lupus familiaris
[11] = test system: Canis familiaris; experiment: Diuretic activity in dog assessed as chloride level in urine collected for 2 hrs at 1.5 mg/kg, iv over a period of 5 mins (reference value: 1 microEq); format: functional, Canis lupus familiaris
[12] = test system: Canis familiaris; experiment: Diuretic activity in dog assessed as sodium level in urine collected for 2 hrs at 1.5 mg/kg, iv over a period of 5 mins (reference value: 29 microEq); format: functional, Canis lupus familiaris

| Compound | Activity [1] [uEq] | Ratio [2] | further results |
| --- | --- | --- | --- |
| CCC1(C2CCCC2)Cc2cc(OCC(=O)O)c(Cl)c(Cl)c2C1=O (stereo unspecified) | 231 | 0.12 | – |
| CC1(Cc2ccccc2)Cc2cc(OCC(=O)O)c(Cl)c(Cl)c2C1=O (stereo unspecified) | 251 | 0.18 | – |
| CC1Cc2cc(OCC(=O)O)c(Cl)c(Cl)c2C1=O (stereo unspecified) | – | – | LD50 [3]: 354 mg/kg; Ratio [4]: 1 |
| CCC1Cc2cc(OCC(=O)O)c(Cl)c(Cl)c2C1=O (stereo unspecified) | 427 | 0.09 | LD50 [3]: 245 mg/kg; Ratio [4]: 2.8 |
| CCCC1Cc2cc(OCC(=O)O)c(Cl)c(Cl)c2C1=O (stereo unspecified) | – | 0.19 | – |
| CC(C)C1Cc2cc(OCC(=O)O)c(Cl)c(Cl)c2C1=O (stereo unspecified) | 649 | 0.18 | Activity [5]: 44 uEq; Activity [6]: 330 uEq; LD50 [3]: 505 mg/kg; Activity [7]: 4 mL; Activity [8]: 281 uEq; Ratio [4]: 3.2 |
| Cc1c(OCC(=O)O)cc2c(c1Cl)C(=O)C(C(C)C)C2 (stereo unspecified) | 185 | 0.07 | Activity [5]: 50 uEq; Activity [6]: 204 uEq; Activity [7]: 3 mL; Activity [8]: 218 uEq |
| Cc1c(OCC(=O)O)cc2c(c1C)C(=O)C(C(C)C)C2 (stereo unspecified) | 153 | 0.15 | Activity [5]: 15 uEq; Activity [6]: 100 uEq; Activity [7]: 2 mL; Activity [8]: 154 uEq |
| CCCCC1Cc2cc(OCC(=O)O)c(Cl)c(Cl)c2C1=O (stereo unspecified) | 126 | 0.11 | – |
| CC(C)(C)C1Cc2cc(OCC(=O)O)c(Cl)c(Cl)c2C1=O (stereo unspecified) | 106 | 0 | – |
| Cc1c(OCC(=O)O)cc2c(c1Cl)C(=O)C(C1CCCC1)C2 (stereo unspecified) | 141 | 0.14 | – |
| Cc1c(OCC(=O)O)cc2c(c1C)C(=O)C(C1CCCC1)C2 (stereo unspecified) | 0 | 0.43 | – |
| O=C(O)COc1cc2c(c(Cl)c1Cl)C(=O)C(C1CCCCC1)C2 (stereo unspecified) | 310 | 0.21 | – |
| O=C(O)COc1cc2c(c(Cl)c1Cl)C(=O)C1CCCCC21 (stereo unspecified) | 85 | 0.2 | – |
| CC1C(=O)c2c(cc(OCC(=O)O)c(Cl)c2Cl)C1c1ccccc1 (stereo unspecified) | 64 | 0.12 | – |
| CCC1C(=O)c2c(cc(OCC(=O)O)c(Cl)c2Cl)C1c1ccccc1 (stereo unspecified) | 223 | 0.28 | – |
| CC(C)C1C(=O)c2c(cc(OCC(=O)O)c(Cl)c2Cl)C1c1ccccc1 (stereo unspecified) | 240 | 0.25 | – |
| O=C(O)COc1cc2c(c(Cl)c1Cl)C(=O)C(C1CCCC1)C2c1ccccc1 (stereo unspecified) | 22 | 0.25 | – |
| CCC1C(=O)c2c(cc(OCC(=O)O)c(Cl)c2Cl)C1c1ccccn1 (stereo unspecified) | 0 | 0.08 | – |
| CCC1C(=O)c2c(cc(OCC(=O)O)c(Cl)c2Cl)C1c1cccnc1 (stereo unspecified) | 25 | 0.07 | – |
| CC1(C)Cc2cc(OCC(=O)O)c(Cl)c(Cl)c2C1=O | 535 | 0.04 | LD50 [3]: 268 mg/kg; Ratio [4]: 3.9 |
| CCC1(C)Cc2cc(OCC(=O)O)c(Cl)c(Cl)c2C1=O (stereo unspecified) | 520 | 0.07 | Activity [5]: 62 uEq; Activity [6]: 450 uEq; LD50 [3]: 239 mg/kg; Activity [7]: 4 mL; Activity [8]: 360 uEq; Ratio [4]: 15 |
| CCCC1(CC)Cc2cc(OCC(=O)O)c(Cl)c(Cl)c2C1=O (stereo unspecified) | 341 | 0.05 | – |
| Cc1c(OCC(=O)O)cc2c(c1Cl)C(=O)C(C)(C1CCCC1)C2 (stereo unspecified) | 86 | 0.24 | – |
| C=CCC1(C)Cc2cc(OCC(=O)O)c(Cl)c(Cl)c2C1=O (stereo unspecified) | 81 | 0.01 | Activity [5]: 37 uEq; Activity [6]: 171 uEq; Activity [7]: 4 mL; Activity [8]: 175 uEq |

| Compound | Activity [1] [uEq] | Ratio [2] | further results |
| --- | --- | --- | --- |
| O=C(O)COc1cc2c(c(Cl)c1Cl)C(=O)C1(CCCCC1)C2 | 489 | 0.05 | – |
| CC12CCCCC1c1cc(OCC(=O)O)c(Cl)c(Cl)c1C2=O (stereo unspecified) | 406 | 0.39 | – |
| CC1(C)C(=O)c2c(cc(OCC(=O)O)c(Cl)c2Cl)C1c1ccccc1 (stereo unspecified) | 22 | 0.1 | – |
| CCC1(C)C(=O)c2c(cc(OCC(=O)O)c(Cl)c2Cl)C1c1ccccc1 (stereo unspecified) | 0 | 0 | – |
| CCC1Cc2cc(OCc3nnn[nH]3)c(Cl)c(Cl)c2C1=O (stereo unspecified) | 28 | 0.11 | – |
| CC(C)C1Cc2cc(OCc3nnn[nH]3)c(Cl)c(Cl)c2C1=O (stereo unspecified) | 42 | 0.07 | – |
| CCC1C(=O)c2c(cc(OCc3nnn[nH]3)c(Cl)c2Cl)C1c1ccccc1 (stereo unspecified) | 5 | 0.06 | – |
| O=C1c2c(cc(OCc3nnn[nH]3)c(Cl)c2Cl)CC1C1CCCC1 (stereo unspecified) | 56 | 0.18 | – |
| CC(C)C1(C)Cc2cc(OCc3nnn[nH]3)c(Cl)c(Cl)c2C1=O (stereo unspecified) | 174 | 0.17 | – |
| O=C1c2c(cc(OCc3nnn[nH]3)c(Cl)c2Cl)CC12CCCCC2 | 0 | 0.02 | – |
| CC1c2cc(OCc3nnn[nH]3)c(Cl)c(Cl)c2C(=O)C1C1CCCC1 (stereo unspecified) | 19 | 0.07 | – |
| O=C1c2c(cc(OCc3nnn[nH]3)c(Cl)c2Cl)CC12CCCC2 | 0 | 0.05 | – |
| O=C(O)COc1cc2c(c(Cl)c1Cl)C(=O)C(CC1CCCC1)C2 (stereo unspecified) | 105 | 0.05 | – |
| O=C(O)COc1cc2c(c(Cl)c1Cl)C(=O)C1(CCCC1)C2 | 624 | 0.11 | Activity [5]: 47 uEq; Activity [6]: 254 uEq; Activity [7]: 5 mL; Activity [8]: 330 uEq |
| CC(C)C1(C)Cc2cc(OCC(=O)O)c(Cl)c(Cl)c2C1=O (racemic) | – | – | Activity [5]: 35 uEq; Activity [6]: 218 uEq; LD50 [3]: 244 mg/kg; Activity ([1]; 5 mg/kg): 506 uEq; Ratio ([2]; 5 mg/kg): 0.03; Activity [7]: 2 mL; Activity [8]: 185 uEq; Ratio [4]: 53 |
| CC1(C2CCCC2)Cc2cc(OCC(=O)O)c(Cl)c(Cl)c2C1=O (racemic) | – | – | Activity [5]: 48 uEq; Activity [6]: 478 uEq; LD50 [3]: 213 mg/kg; Activity ([1]; 5 mg/kg): 425 uEq; Ratio ([2]; 5 mg/kg): 0.2; Activity [7]: 4 mL; Activity [8]: 454 uEq; Ratio [4]: 5.4 |
| CC(C)C1(C)Cc2cc(OCC(=O)O)c(Cl)c(Cl)c2C1=O (single isomer, unassigned; (+)) | – | – | Activity ([1]; 5 mg/kg): 1593 uEq; Ratio ([2]; 5 mg/kg): 0.41 |
| O=C(O)COc1cc2c(c(Cl)c1Cl)C(=O)C(C1CCCC1)C2 (single isomer, unassigned; (+)) | – | – | Activity ([1]; 5 mg/kg): 300 uEq; Ratio ([2]; 5 mg/kg): 0.26 |
| O=C(O)COc1cc2c(c(Cl)c1Cl)C(=O)C(C1CCCC1)C2 (single isomer, unassigned; (-)) | – | – | Activity ([1]; 5 mg/kg): 292 uEq; Ratio ([2]; 5 mg/kg): 0.1 |
| CC1(C2CCCC2)Cc2cc(OCC(=O)O)c(Cl)c(Cl)c2C1=O (single isomer, unassigned; enantiomer 1) | – | – | Activity ([1]; 5 mg/kg): 325 uEq; Ratio ([2]; 5 mg/kg): 0.1 |
| CC(C)C1(C)Cc2cc(OCC(=O)O)c(Cl)c(Cl)c2C1=O (single isomer, unassigned; enantiomer 2) | – | – | Activity ([1]; 5 mg/kg): 992 uEq; Ratio ([2]; 5 mg/kg): 0.06 |
| CC1(C2CCCC2)Cc2cc(OCC(=O)O)c(Cl)c(Cl)c2C1=O (single isomer, unassigned; enantiomer 2) | – | – | Activity ([1]; 5 mg/kg): 268 uEq; Ratio ([2]; 5 mg/kg): 0.17 |
| O=C(O)COc1cc2c(c(Cl)c1Cl)C(=O)C(C1CCCC1)C2 (stereo in doubt; 4p) | – | – | Activity [5]: 37 uEq; Activity [6]: 5 uEq; LD50 [3]: 222 mg/kg; Activity ([1]; 5 mg/kg): 223 uEq; Ratio ([2]; 5 mg/kg): 0.18; Activity [7]: 2 mL; Activity [8]: 20 uEq; Ratio [4]: 1.8 |
| NS(=O)(=O)c1cc(C(=O)O)c(NCc2ccco2)cc1Cl [FUROSEMIDE] | 1035 | -0.02 | Activity [9]: 3 mL; Activity [10]: 141 uEq; Activity [11]: 1081 uEq; Activity [12]: 960 uEq |
| NS(=O)(=O)c1cc2c(cc1Cl)NCNS2(=O)=O [HYDROCHLOROTHIAZIDE] | 144 | – | Activity [5]: 33 uEq; Activity [6]: 156 uEq; Activity [7]: 3 mL; Activity [8]: 166 uEq |
